Consider four compounds from patent US8658640B2, “JNK inhibitors for the treatment of endometriosis” (Merck Serono SA, priority 2005, dated 2014).

For experiment [1] the following is noted: cited from earlier work.
Experiment [2] has as its system human endometrial tissue organ cultures. Briefly: Proliferative organ culture model (MMP-3 Western blot). In kind it is cell-based. The source says:
Normal endometrial tissues were acquired just prior to ovulation by biopsy from a donor population (no history of endometriosis) and from women with surgically confirmed endometriosis. Informed consent was obtained prior to biopsy and the use of human tissues was approved by Vanderbilt University's Institutional Review Board and Committee for the Protection of Human Subjects.
Endometrial biopsies were dissected into small cubes (˜1×1 mm^3) and 8-10 pieces of tissue per treatment group were suspended in tissue culture inserts. Organ cultures were maintained a total of 72 hrs at 37° C. in DME/F-12 media with serum supplements. Tissue treatments included 17β-estradiol (E), E plus progesterone (P), or E plus medroxy progesterone acetate (MPA) with and without the JNK inhibitor. Cultures were maintained for 24 hours in E only until the initiation of experimental conditions. JNK inhibitor was used at a concentration of 5 or 15 μM and MPA was used at a concentration of 50, 100 or 250 μM.
Media was collected from organ cultures and secreted proteins quantified using the Coomassie Plus Protein Assay (Pierce) and 20 μg total protein subjected to 10% SDS-PAGE. Proteins were transferred to PVDF membrane and blocked in PBS with 10% non-fat milk and 0.05% Tween-20. […]
On the technique in general: A western blot detects proteins with antibodies after separation by electrophoresis.

The test system of experiment [3] is endometriotic lesions from human endometrial tissue. The note with it: earlier work using this model; positive control; cited from earlier work.
The test system of the next experiment is endometriotic-like foci. As to the kind of experiment: Rat model of experimentally induced endometriosis. The format is in vivo. The conditions noted are these: for comparison; data not shown. From the text: The control group received the vehicle only.

Consider `C#C[C@]1(O)CC[C@H]2[C@@H]3CCC4=Cc5oncc5C[C@]4(C)[C@H]3CC[C@@]21C` [Danazol], for which the “patients suffering from pain with improved symptoms” value in experiment [1] is 66-100%.

On to `CC(=O)O[C@]1(C(C)=O)CC[C@H]2[C@@H]3C[C@H](C)C4=CC(=O)CC[C@]4(C)[C@H]3CC[C@@]21C` [MPA, medroxy progesterone acetate], for which the “sensitivity to MPA treatment” value in experiment [2] (endometrial cultures from endometriosis patients) is reported as “failed to regress”; in experiment [2] (endometrial cultures from normal volunteers) it was “sensitive”.

`CC(=O)[C@H]1CC[C@H]2[C@@H]3CCC4=CC(=O)CC[C@]4(C)[C@H]3CC[C@]12C` [progesterone]: in experiment [3], the disease progression entry is “prevents disease progression”.

On to antide, for which the “regression of established endometriotic lesions” value with endometriotic-like foci was “about 85%”.
